Here are results for 2 compounds from ChEMBL document CHEMBL1129808, “A novel photoaffinity label for the dopamine transporter based on N-substituted 3-[bis(4-fluorophenyl)methoxy]tropane” (Bioorg Med Chem Lett, 1997).

The assay has as its target Sodium-dependent dopamine transporter (Rattus norvegicus, UniProt P23977). The assay can be described thus: The compound was tested for binding affinity towards dopamine transporter in rat caudate putamen. In kind it is tissue-based.

Sequence of Sodium-dependent dopamine transporter (P23977 whole entry): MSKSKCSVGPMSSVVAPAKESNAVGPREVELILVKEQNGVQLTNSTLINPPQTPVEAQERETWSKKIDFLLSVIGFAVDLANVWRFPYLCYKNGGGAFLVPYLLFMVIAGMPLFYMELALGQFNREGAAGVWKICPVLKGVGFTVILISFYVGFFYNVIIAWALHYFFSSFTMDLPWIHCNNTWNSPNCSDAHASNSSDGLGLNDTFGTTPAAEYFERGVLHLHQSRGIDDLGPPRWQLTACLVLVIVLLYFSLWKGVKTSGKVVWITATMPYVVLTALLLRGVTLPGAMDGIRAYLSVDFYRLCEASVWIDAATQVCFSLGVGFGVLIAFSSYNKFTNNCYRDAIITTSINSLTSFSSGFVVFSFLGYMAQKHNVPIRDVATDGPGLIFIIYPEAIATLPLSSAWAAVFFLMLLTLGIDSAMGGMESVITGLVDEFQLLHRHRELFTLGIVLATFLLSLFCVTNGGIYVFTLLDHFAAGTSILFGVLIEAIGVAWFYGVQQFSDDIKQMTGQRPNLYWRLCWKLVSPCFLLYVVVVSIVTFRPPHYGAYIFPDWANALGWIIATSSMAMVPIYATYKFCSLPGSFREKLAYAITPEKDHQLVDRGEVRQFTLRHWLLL

Turning to `[N-]=[N+]=Nc1ccc(CCCCN2[C@@H]3CC[C@H]2C[C@@H](OC(c2ccc(F)cc2)c2ccc(F)cc2)C3)cc1I`, affinity was put at a Ki of 159 nM. As for `Nc1ccc(CCCCN2[C@@H]3CC[C@H]2C[C@@H](OC(c2ccc(F)cc2)c2ccc(F)cc2)C3)cc1`, the figure is 29.7 nM.
